Data taken from patent US6821967B2, “Substituted piperazine derivatives, the preparation thereof and their use as medicaments” (Boehringer Ingelheim Pharma KG, priority 1999, dated 2004).

Row | melting point [°C] | Compound
1 | 44 | COc1ccc(CNC(=O)C2(CCCCN3CCN(c4ccc5ccccc5n4)CC3)c3ccccc3-c3ccccc32)c(OC)c1 [Example 82, 9-[4-(4-quinolin-2-yl-piperazin-1-yl)-butyl]-9H-fluorene-9-carboxylic acid-2,4-dimethoxy-benzylamide]
2 | 118 | COc1ccc(CNC(=O)C2(CCCCN3CCN(c4ccc5ccccc5n4)CC3)c3ccccc3-c3ccccc32)cc1OC [Example 83, 9-[4-(4-quinolin-2-yl-piperazin-1-yl)-butyl]-9H-fluorene-9-carboxylic acid-3,4-dimethoxy-benzylamide]
3 | 116 to 118 | O=C(NCc1ccc(F)cc1F)C1(CCCCN2CCN(c3ccc4ccccc4n3)CC2)c2ccccc2-c2ccccc21 [Example 84, 9-[4-(4-quinolin-2-yl-piperazin-1-yl)-butyl]-9H-fluorene-9-carboxylic acid-2,4-difluoro-benzylamide]
4 | 141 to 143 | O=C(NCc1ccc(F)c(F)c1)C1(CCCCN2CCN(c3ccc4ccccc4n3)CC2)c2ccccc2-c2ccccc21 [Example 85, 9-[4-(4-quinolin-2-yl-piperazin-1-yl)-butyl]-9H-fluorene-9-carboxylic acid-3,4-difluoro-benzylamide]
5 | 120 | O=C(NCC(F)(F)C(F)(F)F)C1(CCCCN2CCN(c3ccc4ccccc4n3)CC2)c2ccccc2-c2ccccc21 [Example 86, 9-[4-(4-quinolin-2-yl-piperazin-1-yl)-butyl]-9H-fluorene-9-carboxylic acid-(2,2,3,3,3-pentafluoro-propyl)-amide]
6 | 120 | Cn1c(N2CCN(CCCCC3(C(=O)NCC(F)(F)C(F)(F)F)c4ccccc4-c4ccccc43)CC2)nc2ccccc21 [Example 87, 9-{4-[4-(1-methyl-1H-benzimidazol-2-yl)-piperazin-1-yl]-butyl}-9H-fluorene-9-carboxylic acid-(2,2,3,3,3-pentafluoro-propyl)-amide]
7 | 166 to 168 | O=C(NCc1ccncc1)C1(CCCCN2CCN(c3ccc4ccccc4n3)CC2)c2ccccc2-c2ccccc21 [Example 88, 9-[4-(4-quinolin-2-yl-piperazin-1-yl)-butyl]-9H-fluorene-9-carboxylic acid-(pyridin-4-ylmethyl)-amide]
8 | 45 to 50 | O=C(NCc1cccs1)C1(CCCCN2CCN(c3ccc4ccccc4n3)CC2)c2ccccc2-c2ccccc21 [Example 90, 9-[4-(4-quinolin-2-yl-piperazin-1-yl)-butyl]-9H-fluorene-9-carboxylic acid-(thiophen-2-ylmethyl)-amide]
9 | 126 | CCCNC(=O)C1(CCCCN2CCN(c3nc4ccccc4n3C)CC2)c2ccccc2-c2ccccc21 [Example 91, 9-{4-[4-(1-methyl-1H-benzimidazol-2-yl)-piperazin-1-yl]-butyl}-9H-fluorene-9-carboxylic acid propylamide]
10 | 55 to 57 | O=C(NCCc1ccccc1)C1(CCCCN2CCN(c3ccc4ccccc4n3)CC2)c2ccccc2-c2ccccc21 [Example 92, 9-[4-(4-quinolin-2-yl-piperazin-1-yl)-butyl]-9H-fluorene-9-carboxylic acid-(phenethyl)-amide]
11 | 87 | COCCCNC(=O)C1(CCCCN2CCN(c3ccc4ccccc4n3)CC2)c2ccccc2-c2ccccc21 [Example 93, 9-[4-(4-quinolin-2-yl-piperazin-1-yl)-butyl]-9H-fluorene-9-carboxylic acid-(3-methoxy-propyl)-amide]
12 | 110 to 112 | COC(=O)CCNC(=O)C1(CCCCN2CCN(c3ccc4ccccc4n3)CC2)c2ccccc2-c2ccccc21 [Example 94, 9-[4-(4-quinolin-2-yl-piperazin-1-yl)-butyl]-9H-fluorene-9-carboxylic acid-(2-methoxycarbonyl-ethyl)-amide]

Further lines, the compound ahead of its results:

Row | Compound | melting point [°C]
13 | O=C(NCc1ccc(F)cc1)C1(CCCCN2CCN(c3ccc4c(Cl)cccc4n3)CC2)c2ccccc2-c2ccccc21 [Example 54, 9-{4-[4-(5-chloro-quinolin-2-yl)-piperazin-1-yl]-butyl}-9H-fluorene-9-carboxylic acid-4-fluoro-benzylamide] | 140
14 | O=C(NCc1ccc(F)cc1)C1(CCCCN2CCN(c3ccc4cccc(Cl)c4n3)CC2)c2ccccc2-c2ccccc21 [Example 55, 9-{4-[4-(8-chloro-quinolin-2-yl)-piperazin-1-yl]-butyl}-9H-fluorene-9-carboxylic acid-4-fluoro-benzylamide] | 66
15 | O=C(NCc1ccc(F)cc1)C1(CCCCN2CCN(c3cnc4ccccc4n3)CC2)c2ccccc2-c2ccccc21 [Example 57, 9-[4-(4-quinoxalin-2-yl-piperazin-1-yl)-butyl]-9H-fluorene-9-carboxylic acid-4-fluoro-benzylamide] | 160
16 | O=C(NCc1ccc(F)cc1)C1(CCCCN2CCN(c3ncc4ccccc4n3)CC2)c2ccccc2-c2ccccc21 [Example 58, 9-[4-(4-quinazolin-2-yl-piperazin-1-yl)-butyl]-9H-fluorene-9-carboxylic acid-4-fluoro-benzylamide] | 160
17 | O=C(NCc1ccc(F)cc1)C1(CCCCN2CCN(c3nc4ccccc4s3)CC2)c2ccccc2-c2ccccc21 [Example 59, 9-[4-(4-benzothiazol-2-yl-piperazin-1-yl)-butyl]-9H-fluorene-9-carboxylic acid-4-fluoro-benzylamide] | 160
18 | Cn1c(N2CCN(CCCCC3(C(=O)NCc4ccc(F)cc4)c4ccccc4-c4ccccc43)CC2)nc2ccccc21 [Example 60, 9-{4-[4-(1-methyl-1H-benzimidazol-2-yl)-piperazin-1-yl]-butyl}-9H-fluorene-9-carboxylic acid-4-fluoro-benzylamide] | 55
19 | CCn1c(N2CCN(CCCCC3(C(=O)NCc4ccc(F)cc4)c4ccccc4-c4ccccc43)CC2)nc2ccccc21 [Example 61, 9-{4-[4-(1-ethyl-1H-benzimidazol-2-yl)-piperazin-1-yl]-butyl}-9H-fluorene-9-carboxylic acid-4-fluoro-benzylamide] | 166
20 | Cn1c(N2CCN(CCCCC3(C(=O)NCc4ccc(F)cc4)c4ccccc4-c4ccccc43)CC2)nc2ccc(F)cc21 [Example 62, 9-{4-[4-(6-fluoro-1-methyl-1H-benzimidazol-2-yl)-piperazin-1-yl]-butyl}-9H-fluorene-9-carboxylic acid-4-fluoro-benzylamide] | 43
21 | Cn1c(N2CCN(CCCCC3(C(=O)NCc4ccc(F)cc4)c4ccccc4-c4ccccc43)CC2)nc2cccnc21 [Example 63, 9-{4-[4-(3-methyl-3H-imidazo[4,5]-pyridin-2-yl)-piperazin-1-yl]-butyl}-9H-fluorene-9-carboxylic acid-4-fluoro-benzylamide] | 153
22 | C[C@H]1CN(c2ccc3ccccc3n2)CCN1CCCCC1(C(=O)NCc2ccc(F)cc2)c2ccccc2-c2ccccc21 [Example 64, 9-{4-[(S)-2-methyl-4-quinolin-2-yl-piperazin-1-yl]-butyl}-9H-fluorene-9-carboxylic acid-4-fluoro-benzylamide] | 124
23 | C[C@@H]1CN(c2ccc3ccccc3n2)C[C@H](C)N1CCCCC1(C(=O)NCc2ccc(F)cc2)c2ccccc2-c2ccccc21 [Example 65, 9-[4-(cis-2,6-dimethyl-4-quinolin-2-yl-piperazin-1-yl)butyl]-9H-fluorene-9-carboxylic acid-4-fluoro-benzylamide] | 62
24 | C[C@@H]1CN(c2ccc3c(Cl)cccc3n2)C[C@H](C)N1CCCCC1(C(=O)NCc2ccc(F)cc2)c2ccccc2-c2ccccc21 [Example 66, 9-{4-[4-(5-chloro-quinolin-2-yl)-cis-2,6-dimethyl-piperazin-1-yl]-butyl}-9H-fluorene-9-carboxylic acid-4-fluoro-benzylamide] | 136 to 137
25 | C[C@@H]1CN(c2ncc3ccccc3n2)C[C@H](C)N1CCCCC1(C(=O)NCc2ccc(F)cc2)c2ccccc2-c2ccccc21 [Example 67, 9-[4-(cis-2,6-dimethyl-4-quinazoline-2-yl-piperazin-1-yl)-butyl]-9H-fluorene-9-carboxylic acid-4-fluoro-benzylamide] | 172
26 | C[C@@H]1CN(c2nc3ccccc3o2)C[C@H](C)N1CCCCC1(C(=O)NCc2ccc(F)cc2)c2ccccc2-c2ccccc21 [Example 69, 9-[4-(4-benzoxazol-2-yl-cis-2,6-dimethyl-piperazin-1-yl)-butyl]-9H-fluorene-9-carboxylic acid-4-fluoro-benzylamide] | 153
27 | C[C@@H]1CN(c2nc3ccccc3s2)C[C@H](C)N1CCCCC1(C(=O)NCc2ccc(F)cc2)c2ccccc2-c2ccccc21 [Example 70, 9-[4-(4-benzothiazol-2-yl-cis-2,6-dimethyl-piperazin-1-yl)-butyl]-9H-fluorene-9-carboxylic acid-4-fluoro-benzylamide] | 171
28 | COc1ccc(CNC(=O)C2(CCCCN3CCN(c4ccc5c(Cl)cccc5n4)CC3)c3ccccc3-c3ccccc32)cc1 [Example 73, 9-{4-[4-(5-chloro-quinolin-2-yl)-piperazin-1-yl]-butyl}-9H-fluorene-9-carboxylic acid-4-methoxy-benzylamide] | 135 to 136
29 | COc1ccc(CNC(=O)C2(CCCCN3CCN(c4ncc5ccccc5n4)CC3)c3ccccc3-c3ccccc32)cc1 [Example 74, 9-[4-(4-quinazolin-2-yl-piperazin-1-yl)-butyl]-9H-fluorene-9-carboxylic acid-4-methoxy-benzylamide] | 143 to 144
30 | COc1ccc(CNC(=O)C2(CCCCN3CCN(c4nc5ccccc5s4)CC3)c3ccccc3-c3ccccc32)cc1 [Example 76, 9-[4-(4-benzothiazol-2-yl-piperazin-1-yl)-butyl]-9H-fluorene-9-carboxylic acid-4-methoxy-benzylamide] | 145
31 | COc1cccc(CNC(=O)C2(CCCCN3CCN(c4ccc5ccccc5n4)CC3)c3ccccc3-c3ccccc32)c1 [Example 81, 9-[4-(4-quinolin-2-yl-piperazin-1-yl)-butyl]-9H-fluorene-9-carboxylic acid-3-methoxy-benzylamide] | 114 to 116
